Measurements as given in PubChem BioAssay (NCI).
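1) Cells in 96-well plates. 2) Compound, 48 h, 5 concentrations. 3) Linear interpolation between surrounding doses. 4) Unreached endpoint = highest concentration. TGI: total growth inhibition.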 Where a SMILES comes first, the peptide text is derived from it. [ ]: non-standard residue; d: D form. The star is where a group is joined. Tyr(3-Br) = N[C@@H](Cc1ccc(O)c(Br)c1)C(=O)O; Boc = CC(C)(C)OC(=O)*

What was measured:
Assay in all cases: inhibition of tumour cell growth, NCI panel, 48 h
A498 renal = test system: A498 renal
A549 NSCLC = test system: A549 NSCLC
ACHN renal = test system: ACHN renal
HL-60(TB) leukemia = test system: HL-60(TB) leukemia
HOP-62 NSCLC = test system: HOP-62 NSCLC
IGROV1 ovarian = test system: IGROV1 ovarian
MDA-N = test system: MDA-N
NCI-H23 lung = test system: NCI-H23 lung
NCI-H460 lung = test system: NCI-H460 lung
NCI/ADR-RES ovarian = test system: NCI/ADR-RES ovarian
OVCAR-3 ovarian = test system: OVCAR-3 ovarian
OVCAR-5 ovarian = test system: OVCAR-5 ovarian
RPMI-8226 leukemia = test system: RPMI-8226 leukemia
SNB-19 CNS = test system: SNB-19 CNS
SNB-75 CNS = test system: SNB-75 CNS
NCI-H522 lung = test system: NCI-H522 lung
SK-MEL-5 melanoma = test system: SK-MEL-5 melanoma
UACC-62 melanoma = test system: UACC-62 melanoma
RXF 393 renal = test system: RXF 393 renal

SMILES: COC(=O)[C@H](Cc1ccc(O)c(Br)c1)NC(=O)[C@H](Cc1ccc(O)cc1)NC(=O)OC(C)(C)C (Boc-Tyr-[Tyr(3-Br)]-OMe)
- TGI (A498 renal): > 100 µM
- TGI (A549 NSCLC): > 100 µM
- TGI (ACHN renal): > 100 µM
- TGI (HL-60(TB) leukemia): > 100 µM
- TGI (HOP-62 NSCLC): > 100 µM
- TGI (IGROV1 ovarian): > 100 µM
- TGI (MDA-N): > 100 µM
- TGI (NCI-H23 lung): 71.5 µM
- TGI (NCI-H460 lung): 37.7 µM
- TGI (NCI/ADR-RES ovarian): > 100 µM
- TGI (OVCAR-3 ovarian): 38.3 µM
- TGI (OVCAR-5 ovarian): > 100 µM
- TGI (RPMI-8226 leukemia): 91 µM
- TGI (SNB-19 CNS): > 100 µM
- TGI (SNB-75 CNS): > 100 µM

SMILES: OC[C@]1(n2nc3ccccc3n2)OC[C@@H]1c1ccccc1
- TGI (A498 renal): > 100 µM
- TGI (A549 NSCLC): > 100 µM
- TGI (ACHN renal): > 100 µM
- TGI (HL-60(TB) leukemia): 93.9 µM
- TGI (HOP-62 NSCLC): > 100 µM
- TGI (IGROV1 ovarian): > 100 µM
- TGI (MDA-N): > 100 µM
- TGI (NCI-H23 lung): > 100 µM
- TGI (NCI-H460 lung): > 100 µM
- TGI (NCI-H522 lung): 58.2 µM
- TGI (NCI/ADR-RES ovarian): > 100 µM
- TGI (OVCAR-3 ovarian): 71.2 µM
- TGI (OVCAR-5 ovarian): > 100 µM
- TGI (RPMI-8226 leukemia): 97.4 µM
- TGI (SK-MEL-5 melanoma): > 100 µM
- TGI (SNB-19 CNS): > 100 µM
- TGI (UACC-62 melanoma): > 100 µM

SMILES: CCN(CC)CCCn1c(=O)c2ccccc2n2c3c(=O)n(C)c(=O)n(C)c3nc12
- TGI (A549 NSCLC): 10.4 µM
- TGI (ACHN renal): 4.17 µM
- TGI (HL-60(TB) leukemia): 9.08 µM
- TGI (HOP-62 NSCLC): 15.1 µM
- TGI (IGROV1 ovarian): 26.2 µM
- TGI (MDA-N): 28 µM
- TGI (NCI-H23 lung): 21.2 µM
- TGI (NCI-H460 lung): 4.06 µM
- TGI (NCI-H522 lung): 21.9 µM
- TGI (NCI/ADR-RES ovarian): 47.2 µM
- TGI (OVCAR-3 ovarian): 33.6 µM
- TGI (OVCAR-5 ovarian): 32.9 µM
- TGI (RPMI-8226 leukemia): 49.7 µM
- TGI (RXF 393 renal): 45.8 µM
- TGI (SK-MEL-5 melanoma): 15 µM
- TGI (SNB-19 CNS): 35.3 µM
- TGI (SNB-75 CNS): 18.6 µM
- TGI (UACC-62 melanoma): 24.1 µM

SMILES: Cc1ccc2c(sc(-c3ccc4c(c3)sc(-c3ccc5c(c3)sc(-c3ccc(N(C)C)cc3)[n+]5C)[n+]4C)[n+]2C)c1S(=O)(=O)O (tested in a mixture with another compound)
- TGI (A498 renal): > 100 µM
- TGI (A549 NSCLC): > 100 µM
- TGI (ACHN renal): > 100 µM
- TGI (HL-60(TB) leukemia): > 100 µM
- TGI (IGROV1 ovarian): > 100 µM
- TGI (MDA-N): > 100 µM
- TGI (NCI-H23 lung): > 100 µM
- TGI (NCI-H522 lung): > 100 µM
- TGI (NCI/ADR-RES ovarian): > 100 µM
- TGI (OVCAR-3 ovarian): > 100 µM
- TGI (OVCAR-5 ovarian): > 100 µM
- TGI (RPMI-8226 leukemia): > 100 µM
- TGI (SK-MEL-5 melanoma): > 100 µM
- TGI (SNB-19 CNS): > 100 µM
- TGI (SNB-75 CNS): > 100 µM
- TGI (UACC-62 melanoma): > 100 µM

SMILES: O=C1NC(N2CCCCC2)=N/C1=C\c1cccs1
- TGI (A549 NSCLC): > 100 µM
- TGI (ACHN renal): > 100 µM
- TGI (HL-60(TB) leukemia): > 100 µM
- TGI (HOP-62 NSCLC): > 100 µM
- TGI (IGROV1 ovarian): > 100 µM
- TGI (MDA-N): > 100 µM
- TGI (NCI-H23 lung): > 100 µM
- TGI (NCI-H522 lung): > 100 µM
- TGI (NCI/ADR-RES ovarian): > 100 µM
- TGI (OVCAR-3 ovarian): > 100 µM
- TGI (OVCAR-5 ovarian): > 100 µM
- TGI (RPMI-8226 leukemia): > 100 µM
- TGI (RXF 393 renal): > 100 µM
- TGI (SNB-19 CNS): > 100 µM
- TGI (UACC-62 melanoma): > 100 µM

SMILES: C=C(C)CC1(O)C(=O)C(OCC)=C1OCC (stereo not given)
- TGI (A498 renal): > 100 µM
- TGI (A549 NSCLC): > 100 µM
- TGI (ACHN renal): > 100 µM
- TGI (HL-60(TB) leukemia): > 100 µM
- TGI (HOP-62 NSCLC): > 100 µM
- TGI (IGROV1 ovarian): > 100 µM
- TGI (MDA-N): > 100 µM
- TGI (NCI-H23 lung): > 100 µM
- TGI (NCI-H460 lung): > 100 µM
- TGI (NCI-H522 lung): > 100 µM
- TGI (NCI/ADR-RES ovarian): > 100 µM
- TGI (OVCAR-3 ovarian): > 100 µM
- TGI (OVCAR-5 ovarian): > 100 µM
- TGI (SK-MEL-5 melanoma): > 100 µM
- TGI (SNB-19 CNS): > 100 µM
- TGI (SNB-75 CNS): > 100 µM
- TGI (UACC-62 melanoma): > 100 µM

SMILES: Cc1nn(C(=O)c2ccncc2)c2c1C(c1ccccc1)SC(N)=N2 (stereo not given)
- TGI (A549 NSCLC): > 10 µM
- TGI (ACHN renal): > 10 µM
- TGI (HL-60(TB) leukemia): > 10 µM
- TGI (HOP-62 NSCLC): > 10 µM
- TGI (IGROV1 ovarian): > 10 µM
- TGI (MDA-N): > 10 µM
- TGI (NCI-H23 lung): > 10 µM
- TGI (NCI-H460 lung): > 10 µM
- TGI (NCI-H522 lung): > 10 µM
- TGI (NCI/ADR-RES ovarian): > 10 µM
- TGI (OVCAR-3 ovarian): > 10 µM
- TGI (OVCAR-5 ovarian): > 10 µM
- TGI (RPMI-8226 leukemia): > 10 µM
- TGI (RXF 393 renal): > 10 µM
- TGI (SK-MEL-5 melanoma): > 10 µM
- TGI (SNB-19 CNS): > 10 µM
- TGI (SNB-75 CNS): > 10 µM
- TGI (UACC-62 melanoma): > 10 µM

SMILES: Cc1c2c(n(CCc3ccccc3)c1C)N(C)N=C(C#N)S2(=O)=O
- TGI (A549 NSCLC): > 100 µM
- TGI (ACHN renal): > 100 µM
- TGI (HOP-62 NSCLC): > 100 µM
- TGI (IGROV1 ovarian): > 100 µM
- TGI (MDA-N): > 100 µM
- TGI (NCI-H23 lung): > 100 µM
- TGI (NCI-H460 lung): > 100 µM
- TGI (NCI-H522 lung): > 100 µM
- TGI (NCI/ADR-RES ovarian): > 100 µM
- TGI (OVCAR-3 ovarian): > 100 µM
- TGI (OVCAR-5 ovarian): > 100 µM
- TGI (RPMI-8226 leukemia): > 100 µM
- TGI (RXF 393 renal): > 100 µM
- TGI (SK-MEL-5 melanoma): > 100 µM
- TGI (SNB-19 CNS): > 100 µM
- TGI (SNB-75 CNS): > 100 µM
- TGI (UACC-62 melanoma): > 100 µM

SMILES: COc1ccc2c(c1)/C(=C\c1c(C)nc3sc(C)cn13)C(=O)N2
- TGI (A498 renal): 5.42 µM
- TGI (A549 NSCLC): > 100 µM
- TGI (ACHN renal): > 100 µM
- TGI (HL-60(TB) leukemia): 3.63 µM
- TGI (HOP-62 NSCLC): > 100 µM
- TGI (IGROV1 ovarian): 20.5 µM
- TGI (MDA-N): 0.46 µM
- TGI (NCI-H23 lung): > 70.7 µM
- TGI (NCI-H460 lung): 16.5 µM
- TGI (NCI-H522 lung): 1.53 µM
- TGI (NCI/ADR-RES ovarian): > 42.6 µM
- TGI (OVCAR-3 ovarian): 3.93 µM
- TGI (OVCAR-5 ovarian): 74.4 µM
- TGI (RPMI-8226 leukemia): > 64.8 µM
- TGI (SK-MEL-5 melanoma): 4.62 µM
- TGI (SNB-19 CNS): > 100 µM
- TGI (UACC-62 melanoma): 97.9 µM

SMILES: COc1cc(C(=O)O[C@@H]2[C@@H](OC(=O)c3cc(OC)c(OC)c(OC)c3)[C@@H](OC)O[C@@H]3CO[C@@H](c4ccccc4)O[C@@H]23)cc(OC)c1OC
- TGI (A498 renal): > 100 µM
- TGI (A549 NSCLC): > 100 µM
- TGI (ACHN renal): > 100 µM
- TGI (HL-60(TB) leukemia): > 100 µM
- TGI (HOP-62 NSCLC): > 100 µM
- TGI (IGROV1 ovarian): > 100 µM
- TGI (MDA-N): > 100 µM
- TGI (NCI-H23 lung): > 100 µM
- TGI (NCI-H460 lung): > 100 µM
- TGI (NCI-H522 lung): > 100 µM
- TGI (NCI/ADR-RES ovarian): > 100 µM
- TGI (OVCAR-3 ovarian): > 100 µM
- TGI (OVCAR-5 ovarian): > 100 µM
- TGI (RPMI-8226 leukemia): > 100 µM
- TGI (SK-MEL-5 melanoma): > 100 µM
- TGI (SNB-19 CNS): > 100 µM
- TGI (SNB-75 CNS): > 100 µM
- TGI (UACC-62 melanoma): > 100 µM

SMILES: CC1(C)CC23CC(C)(C)c4cccc(c42)OCc2ccc4ccc5ccc(nc5c4n2)COc2cccc1c23
- TGI (A498 renal): > 50 µM
- TGI (A549 NSCLC): > 50 µM
- TGI (ACHN renal): > 50 µM
- TGI (HL-60(TB) leukemia): > 50 µM
- TGI (HOP-62 NSCLC): > 50 µM
- TGI (IGROV1 ovarian): > 50 µM
- TGI (MDA-N): > 50 µM
- TGI (NCI-H460 lung): > 50 µM
- TGI (NCI-H522 lung): > 50 µM
- TGI (NCI/ADR-RES ovarian): > 50 µM
- TGI (OVCAR-3 ovarian): > 50 µM
- TGI (OVCAR-5 ovarian): > 50 µM
- TGI (RPMI-8226 leukemia): > 50 µM
- TGI (SK-MEL-5 melanoma): > 50 µM
- TGI (SNB-19 CNS): > 5 µM
- TGI (SNB-75 CNS): > 50 µM
- TGI (UACC-62 melanoma): > 50 µM
